Laboratory results: patent US9702824B2, “pH sensors” (PROMEGA CORPORATION, priority 2012, dated 2017)

How the values were obtained:
[1] = tested on: U2-OS cells stably expressing HaloTag-NLS; experiment: pH sensor permeability, pulse and chase with HaloTag Oregon Green (Example 12); settings: 2 uM pulse for 10 minutes
[2] = Stability in DMSO by fluorescent emission intensity; type: physicochemical; settings: for Emission intensity, Ave: average of days 0-110; for Emission intensity: shielded from light, 562 nm, pH 4.0
Description: PBI-4479 was dissolved to 2 mM in DMSO to approximately 2.33 mg/mL. Aliquots of 350 uL from the 2 mM solution were stored shielded from light at −20° C., 4° C. and room temperature. Stability was established by measuring fluorescent emission intensity and by testing HPLC purity at time 0, 1 day, 1 week, 1 month, 4 months, and 6 months from when the solutions were prepared and stored. For the fluorescence measurements, each aliquot was diluted (1 uL) into 4 mL of 0.1M sodium phosphate pH 4.0 directly into a 4.5 mL plastic cuvette and mixed by inversion of the vial. The maximum emission peak at 562 nm was acquired using a HoribaJobinYvon fluorometer using an excitation of 532 nm with 1.5 nm slit width. For HPLC measurements, each aliquot was diluted to 1 mM in 0.1M sodium phosphate pH 4.0, and 2 uL tested. The purity of each aliquot was tested using an Agilent 1100 liquid chromatography system equipped with a quaternary pump and a diode-array detector. The diode-array detector was set at 254 nm and 532 nm. The elution was performed using a mobile phase (A) containing 0.1% TFA in water, and a mobile phase (B) containing HPLC grade acetonitrile. A Phenomenex Synergi MAX-RP column (50×4.6 mm; 2.6 μm) was used to perform the chromatography. The HPLC was performed as follows: a gradient ran 3% to 60% mobile phase (B) to 3.60 minutes, a hold at 60% mobile phase (B) for 1 minute, a ramp up to 100% mobile phase (B) to 6 minutes, another hold at 100% mobile phase (B) for 2 minutes, and then back to 3% mobile phase (B) for 1.5 minutes. The column was given 2.5 minutes to re-equilibrate back to the starting conditions. In these conditions, the product elutes at approximately 3.7 minutes. Purity (as area percent) of the product was reported at 254 nm and 532 nm.

U2OS cells = experiment: Toxicity, CELLTITER-GLO Luminescent Cell Viability Assay (Example 3); type: cell-based; settings: 0 nM to 20 uM, 24 hour
Description: The toxicity of dyes PBI-4479 and PBI-4453 was tested in U2OS cells. The cells were plated at 20,000 cells/well in McCoy's 5A media+10% FBS into wells of a 96-well plate. The compounds were then serially diluted 2-fold in McCoy's 5A+10% FBS to a 10× working solution. 10 ul of the working solution was added to the cells to a final concentration of 0 nM to 20 uM. The treated cells were then incubated overnight at 37° C., 5% CO2. Toxicity was tested using Promega's CELLTITER-GLO Luminescent Cell Viability Assay according to the manufacturer's protocol. No toxicity was seen across varying concentrations of the compounds over the 24 hour period (SEE FIG. 9).

[3] = Fluorescence excitation and emission spectra of pH sensor agents; type: physicochemical
Description: Experiments were conducted during development of embodiments of the present invention to determine the fluorescence characteristics of exemplary pH sensor agents PBI-4453 and PBI-4479 (SEE FIG. 1). Fluorescence excitation and emission intensities were measured at a range of wavelengths (SEE FIG. 2). […] Fluorescence detection was performed at a range of pH values (SEE FIG. 3).

[4] = target: T1, IL6-HT7-β2AR (β2 adrenergic receptor) in U2-OS cells (Homo sapiens, UniProt P07550); experiment: Receptor internalization detection by imaging; type: cell-based; settings: 1 uM sensor, stimulated with 1 uM Isoproterenol, imaged for 1 hour
T1 construct: expressed in transfected cells; host or cells: U2-OS
Description: (§1) Experiments were conducted during development of embodiments of the present invention to detect and monitor internalization/endocytosis. U2-OS cells expressing (either transiently or stably) a HaloTag (HT7)-Receptor fusion protein containing an IL6 signal sequence were used. The following HT7-receptor fusion proteins were expressed in the U2-OS cells: IL6-HT7-β2AR (β2 adrenergic receptor; NM_000024.3), IL6-HT7-EDG1 ([…]; NM_001400), IL6-HT7-DOR1 (δ-opioid receptor; NM 000911) and IL6-HT7-EGFR (epidermal growth factor receptor; AB528482). The cells were plated at 2×10^5 cells/mL in complete media into wells. The cells were then incubated overnight at 37° C., 5% CO2. The media was then replaced with 200 ul McCoy's 5A media with 0.5% charcoal-stripped FBS (Hyclone) and incubated for about 1 hour at 37° C., 5% CO2. The cells were then labeled with 1 uM pH sensor PBI-4479 and incubated for 10 minutes at 37° C., 5% CO2. The cells were then washed 3 times with 200 ul complete media to remove any unbound sensor. The cells were then stimulated with the respective agonist (1 uM Isoproterenol for IL6-HT7-β2AR, 1 uM S1P for IL6-HT7-EDG1, 1 uM SNC80 for IL6-HT7-DOR1, and 1 ng/mL rhEGF for IL6-HT7-EGFR) and imaged every 5 minutes for 1 hour on an Olympus FV500.

[5] = target: T2, IL6-HT7-EDG1 (endothelial differential growth gene 1) in U2-OS cells (UniProt P0A3G2+P21453, A155T/A167V/A172T/A224E/C128F/C176G/D78G/E160K/E257K/H272N/K175M/K195N/L47V/L88M/N227D/S2A/S58T/T264A/Y273L/Y87F); experiment: Receptor internalization detection by imaging; type: cell-based; settings: 1 uM sensor, stimulated with 1 uM S1P, imaged for 1 hour
T2 construct: expressed in transfected cells; host or cells: U2-OS
Description: as §1

[6] = tested on: IL6-HT7-EGFR (epidermal growth factor receptor) in U2-OS cells; experiment: Receptor internalization detection by imaging; type: cell-based; settings: 1 uM sensor, stimulated with 1 ng/mL rhEGF, imaged for 1 hour
Description: as §1

[7] = target: T3, IL6-HT7-DOR1 (δ-opioid receptor) in U2-OS cells (Homo sapiens, UniProt P41143); experiment: Receptor internalization detection by imaging; type: cell-based; settings: 1 uM sensor, stimulated with 1 uM SNC80, imaged for 1 hour
T3 construct: expressed in transfected cells; host or cells: U2-OS
Description: as §1

T2 sequence (P0A3G2+P21453 fused with the stated changes): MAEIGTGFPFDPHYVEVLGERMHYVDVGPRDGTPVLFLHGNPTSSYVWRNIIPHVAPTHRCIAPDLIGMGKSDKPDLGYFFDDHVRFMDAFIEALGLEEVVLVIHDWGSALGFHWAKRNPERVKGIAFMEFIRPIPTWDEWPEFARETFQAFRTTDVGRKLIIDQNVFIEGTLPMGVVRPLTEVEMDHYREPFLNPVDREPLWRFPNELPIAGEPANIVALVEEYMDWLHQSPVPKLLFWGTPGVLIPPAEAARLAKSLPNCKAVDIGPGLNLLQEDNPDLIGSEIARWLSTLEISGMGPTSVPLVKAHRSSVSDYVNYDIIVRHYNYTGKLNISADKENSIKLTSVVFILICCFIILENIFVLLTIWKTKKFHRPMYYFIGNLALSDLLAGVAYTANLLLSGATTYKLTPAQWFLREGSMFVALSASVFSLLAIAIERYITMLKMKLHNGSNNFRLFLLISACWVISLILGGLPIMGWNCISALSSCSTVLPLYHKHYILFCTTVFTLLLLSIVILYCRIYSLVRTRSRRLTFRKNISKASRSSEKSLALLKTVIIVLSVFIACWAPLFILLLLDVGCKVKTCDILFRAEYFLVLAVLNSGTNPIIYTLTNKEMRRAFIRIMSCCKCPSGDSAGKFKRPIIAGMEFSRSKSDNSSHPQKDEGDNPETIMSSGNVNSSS
T3 sequence (P41143 with tags, fused parts or gaps): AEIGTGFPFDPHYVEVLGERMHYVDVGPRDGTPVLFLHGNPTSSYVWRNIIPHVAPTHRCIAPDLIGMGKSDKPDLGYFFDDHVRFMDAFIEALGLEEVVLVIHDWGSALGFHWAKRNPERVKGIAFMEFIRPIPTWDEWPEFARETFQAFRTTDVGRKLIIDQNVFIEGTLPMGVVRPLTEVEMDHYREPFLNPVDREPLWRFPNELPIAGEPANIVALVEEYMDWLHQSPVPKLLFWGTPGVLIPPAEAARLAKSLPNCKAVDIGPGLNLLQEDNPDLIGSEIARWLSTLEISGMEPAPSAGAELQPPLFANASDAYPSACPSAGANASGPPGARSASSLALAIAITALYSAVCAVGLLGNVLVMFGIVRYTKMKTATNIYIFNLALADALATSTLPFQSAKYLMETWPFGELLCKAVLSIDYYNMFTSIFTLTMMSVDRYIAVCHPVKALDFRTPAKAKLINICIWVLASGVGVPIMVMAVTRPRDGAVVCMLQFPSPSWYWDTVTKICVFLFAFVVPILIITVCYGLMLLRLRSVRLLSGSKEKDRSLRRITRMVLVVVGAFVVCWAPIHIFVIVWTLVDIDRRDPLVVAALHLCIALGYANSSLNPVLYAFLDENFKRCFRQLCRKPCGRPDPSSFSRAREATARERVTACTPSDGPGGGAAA

Structure (SMILES): O=C(NCCOCCOCCOCCOCCOCCOCCCCCCCl)c1ccc(C(=O)[O-])c(-c2c3ccc(=[N+]4CCN(CCCCS(=O)(=O)O)CC4)cc-3oc3cc(N4CCN(CCCCS(=O)(=O)O)CC4)ccc23)c1 [PBI-4479]
- cell permeability [1]: non-permeability
- degradation by fluorescence intensity ([2]; 2 mM DMSO solution stored at room temperature): slight degradation
- Emission intensity, Ave ([2]; 2 mM in DMSO, 4° C.): 2096856.0
- Emission intensity, Ave ([2]; 2 mM in DMSO, RT): 2193684.0
- Emission intensity ([2]; 2 mM in DMSO, 4° C., 0 days): 2109020
- Emission intensity ([2]; 2 mM in DMSO, 4° C., 1 day): 2203160
- Emission intensity ([2]; 2 mM in DMSO, 4° C., 7 days): 2055280
- Emission intensity ([2]; 2 mM in DMSO, 4° C., 30 days): 2076310
- Emission intensity ([2]; 2 mM in DMSO, 4° C., 110 days): 2040510
- Emission intensity ([2]; 2 mM in DMSO, RT, 0 days): 2109020
- Emission intensity ([2]; 2 mM in DMSO, RT, 1 day): 2641010
- Emission intensity ([2]; 2 mM in DMSO, RT, 7 days): 2092940
- Emission intensity ([2]; 2 mM in DMSO, RT, 30 days): 2158320
- Emission intensity ([2]; 2 mM in DMSO, RT, 110 days): 1967130
- Emission intensity ([2]; 2 mM in DMSO, −20° C., 0 days): 2109020
- Emission intensity ([2]; 2 mM in DMSO, −20° C., 1 day): 2336260
- Emission intensity ([2]; 2 mM in DMSO, −20° C., 7 days): 2006990
- Emission intensity ([2]; 2 mM in DMSO, −20° C., 30 days): 2191770
- Emission intensity ([2]; 2 mM in DMSO, −20° C., 110 days): 1926570
- time stable ([2]; 2 mM in DMSO, stored below room temperature, by emission intensity and HPLC purity): at least 180 days
- Emission intensity, Ave ([2]; 2 mM in DMSO, −20° C.): 2114122.0
- toxicity (cell viability) (U2OS cells): No toxicity
- emission maximum [3]: 562 nm
- excitation maximum [3]: 534 nm
- detection of receptor internalization [4]: detection of HaloTag-B2AR internalization
- detection of receptor internalization [5]: detection of HaloTag-EDG1 internalization
- detection of receptor internalization [6]: detection of HaloTag-EGFR internalization
- detection of receptor internalization [7]: detection of HaloTag-DOR1 internalization
